Laboratory results reported in patent US20130259929A1, “USE OF A PHOSPHOPEPTIDE ABLE TO BLOCK HER3/P85 INTERACTION FOR THE TREATMENT OF HER2 HYPER-EXPRESSING TUMOURS” (priority 2010, published 2013).
Non-standard residues stand in square brackets, D forms with d. No end group written: not given here. pY = N[C@@H](Cc1ccc(OP(=O)(O)O)cc1)C(=O)O

System: HER2
Test: HER2 expression level and ErbB-2 homodimer (Western blot) after peptide transfection
Assay type: cell-based, human
Description: Treatments and lmmunodecorations. […] Briefly the cells have been plated at 5×10^5 concentration in 60 mm plates. […] At the end of the treatment the cells have been lysed with RIPA buffer [150 mM NaCl, 1% NP-40, 0,5% sodium deoxycholate (DOC), 0.1% SDS, 50 mM TrisHCl (pH 8), 1 mM PMSF, 1 mM EGTA, 50 mM NaF, 50 mM Na3VO4 and protease inhibitors (Roche, Milano, IT)] in order to analyze the expression levels of phosphorylated and total ErbB-3, ErbB-2, ERK and HSP-70 proteins. In order to analyze the levels of Akt phosphorylation and expression, the cells have been lysed in NP-40 buffer [1% NP-40, 10% glycerol, 137 mM NaCl, 20 mM TrisHCl (pH 7.4), 50 mM NaF, 1 mM PMSF, 5 mM Na3VO4, protease inhibitors (Roche, Milano, IT)]. Cell lysates have been incubated on ice for 20 minutes and centrifuged at 14000 rpm for 20 minutes. RIPA buffer obtained cell extracts have been boiled for 5 minutes at 95° C., while NP40 buffer lysed samples have been boiled at 65° C. for 5 minutes. Samples have been subjected to SDS-PAGE and transferred on nitrocellulose filters (Bio-Rad, Milan, IT). Then the filters have been incubated with interest antibodies, washed and incubated with specific secondary horse radish peroxidase (HRP) conjugated antibodies. After thorough washing, nitrocellulose peroxidase activity has been detected by chemiluminescence (Lite-blot-Euroclone, Milano, IT)

## RDGGGPGGDpYAAMGACPA (RDGGGPGGD[pY]AAMGACPA; listed as Homo sapiens) [1257 phosphopeptide]
After peptide treatment (FIG. 4A), poorly appreciable in MDA-MB-453
  total level of HER2: decrease
Not reducing conditions (FIG. 5B)
  ErbB-2 homodimer levels: favours the formation of ErbB-2 homodimer
